Assay results taken from patent US6461598B1, “Process for conditioning hair” (Biosil Research Institute Inc., priority 2000, dated 2002).

Assay: Primary eye irritation, protocol FHSLA 16 CFR 1500.42
Assay type: in vivo
Details: products tested at 25% actives
Experimental: Eye irritation is a major concern in the formulation of personal care products, particularly when working with quats. Primary eye irritation using the protocol outlined in FHSLA 16 CFR 1500.42 The products were tested at 25% actives.

Row | Structure (SMILES) | Primary eye irritation rating | Primary eye irritation score
1 | CCCCCCCCCCCCCCCC[N+](CC)(CC)CC.[Cl-] [Cetyltriethyl ammonium Chloride] | Severely Irritating | 115.0
2 | CCCCCCCCCCCCCCCC[N+](C)(C)C.[Cl-] [Cetyltrimethyl ammonium Chloride] | Severely Irritating | 106.0
3 | CCCCCCCCCCCCCCCCCC[N+](C)(C)Cc1ccccc1.[Cl-] [Stearalkonium Chloride] | Severely Irritating | 116.5
